# Measurements as given in patent US20150238507A1, “BENZODIAZEPINES FOR TREATING SMALL CELL LUNG CANCER” (GlaxoSmithKline LLC, priority 2012, published 2015).
# Like-named read-outs stand apart in the source and are kept apart here.
# Tests used:
# [1] = system: NCI-H526 cell line xenograft; assay: SCLC subcutaneous mouse xenograft model, efficacy and pharmacodynamics; format: in vivo; conditions: 25 mg/kg QD
# [2] = system: small cell lung cancer lines; assay: 6 day proliferation (cell growth) assay, panel of 38 small cell lung cancer lines; format: cell-based; conditions: 6 day proliferation assay; for IC50: 144 h
compound,measurement,setting,value
"CCNC(=O)C[C@@H]1N=C(c2ccc(Cl)cc2)c2cc(OC)ccc2-n2c(C)nnc21 [2-[(4S)-6-(4-chlorophenyl)-1-methyl-8-(methyloxy)-4H-[1,2,4]triazolo[4,3-a][1,4]benzodiazepin-4-yl]-N-ethylacetamide]",reduction of tumour growth,[1]; NCI-H526 subcutaneous mouse xenograft,70%
same,p21 protein expression and caspase activation in tumour,"[1]; NCI-H526 xenograft, antibody-based immunochemistry assay",induce p21 protein expression and caspase activation
same,IC50,"[2]; median of 38 small cell lung cancer lines, read-out: gIC50 (median over the panel)",1460 nM
same,IC50,"[2]; panel of 38 small cell lung cancer lines, read-out: gIC50 (range over the panel)",109 to 29300 nM
same,number of lines showing gIC50<10000 nM,[2]; of the 38 small cell lung cancer lines,33
